The subject of the test is R6/1 mice. Conditions: oral in drinking water from 3 weeks of age, open field at 13 weeks, rotarod at 18 weeks, biotin 10 mg/kg/day or thiamine 200 mg/kg/day, given separately, FIG. 6A-B.

Turning to `Cc1ncc(C[n+]2csc(CCO)c2C)c(N)n1` [thiamine], the “effect on hypoactivity (open field, distance covered) and motor coordination deficit (rotarod, time to fall)” value is on record as “only showed improving trends in some of the behavioural tests”.

The record behind these values is patent US12616680B2 (CONSEJO SUPERIOR DE INVESTIGACIONES CIENTÍFICAS (CSIC), priority 2019, dated 2026).
